Measurements as given in US11478440B2, “Combination of Elafibranor or derivatives thereof with an anti-NASH, anti-fibrotic or anti-cholestatic agent” (GENFIT, priority 2017, dated 2022).

Key:
3D Huh7 spheroids = experiment: Lipid accumulation (AdipoRed) in 3D Huh7 spheroid culture under metabolic NASH stimulus; format: cell-based; details: Elafibranor 3 μM alone, Day 7
Protocol: Cryopreserved Huh7 were purchased from ECACC. Cells were grown in ULA plates (Costar), William's medium (Sigma) containing 10% FBS (Gibco) at 37° C. in a humidified 5% CO2 cell culture incubator. Cells aggregated and formed spheroids within 5 days.
(§1) For these experiments, a checkerboard matrix was generated. ELA and component (ii) stocks were serially diluted in DMSO in 2-points series in a row (ELA) and a 3-points series in a column (component (ii)) of a 96-well plate. Subsequently, the 2×3 combination matrix was generated by 1:1 mixing of all single agent concentrations.
3D Huh7 spheroids were cultured under standard conditions, as described above. They were then deprived for 24 hours in serum-free medium. For the treatments with ELA, component (ii) and the respective ELA/component (ii) combinations, the serum-deprived spheroids were treated with both a metabolic NASH stimulus and the compounds (Day 0) followed by the renewal of the metabolic NASH stimulus and the compounds at Day 4 for an additional 3 days period. The spheroids were stained for lipid accumulation at Day 7.
Intracellular lipid accumulation was quantified using the ADIPORED Assay Reagent (Lonza). Spheroids were subjected to fluorescence assay quantification at λexc: 485 nm and λem: 572 nm, using fluorescence plate reader (TECAN).

HepG2 = experiment: Intracellular lipid droplets (AdipoRed) in fat-loaded HepG2; format: cell-based, human; details: elafibranor 10 μM alone; FFA-treated
Protocol: The human hepatocyte carcinoma were cultured in DMEM 4.5 g/L glucose (Gibco cat #31053 that was supplemented with 10% fetal bovine serum (FBS, Gibco cat #10270), 1% penicillin/streptomycin (Gibco cat #15140), 1% MEM NEAA (Gibco cat #11140), 1% L-Glutamine (Gibco cat #25030), and 1% Sodium Pyruvate (Gibco cat #11360).
as §1, with “component” for “component (ii)”, “5-points” for “2-points”, “11-points” for “3-points”, “(component)” for “(component (ii))”, “384-well” for “96-well”, “5×11” for “2×3”
Oleic (#O1383) and palmitic (P0500) acids were purchased at Sigma. FFA stock solutions (100 mM) were prepared in 0.1M NaOH at 80° C. Working solutions of 4.5 mM palmitate/10% bovine serum albumin (BSA) and 9 mM oleate/10% BSA were prepared by complexing an appropriate volume of stock solution to 10% BSA (FFA-free low endotoxin; Sigma-Aldrich, Bornem, Belgium) in a 55° C. water bath (15 min). […]
To measure intracellular lipid droplets content, the cells were brought to room temperature and washed with 40 μL PBS. […] The relative fluorescence was measured (k excitation at 485 nm, k emission at 580 nm) using a fluorescence spectrometer (Spark Tecan cat #30086376 SN #1801002745). […]

[1] = system: fibrosing NASH-model of rats fed a CDAA+1% cholesterol diet; experiment: Chronic CDAA+1% cholesterol rat model: hepatic gene expression (qPCR); format: in vivo, Wistar rats; details: liver; GFT505 3 mg/kg/d, OCA 10 mg/kg/d, alone or combined; 12 weeks
Protocol: (§2) The preventive effects of Elafibranor alone, OCA alone and the combination of both were assessed in a fibrosing NASH-model of rats fed a CDAA+1% cholesterol diet. 150-175 g male Wistar rats were fed a control (CSAA) diet, CDAA+1% cholesterol diet, or CDAA+1% cholesterol diet supplemented with Elafibranor 1, 3 and 10 mg/kg/day, OCA 10 and 30 mg/kg/day or combined drugs (Elafibranor 1, 3 and 10 mg/kg/day combined to OCA 10 mg/kg/day) for 12 weeks.
(§3) The body weight and the food intake were monitored twice per week. On the last day of treatment, rats were sacrificed after a 6 h fasting period. The liver was rapidly excised for biochemical and histological studies.
Total RNA was isolated from rat livers using RNeasy Mini Kit (Qiagen) following manufacturer's instructions. Total RNA were reverse transcribed into cDNA using M-MLV RT (Moloney Murine Leukemia Virus Reverse Transcriptase) (Invitrogen cat #28025) in 1×RT buffer (Invitrogen), 0.5 mM DTT (Invitrogen), 0.18 mM dNTPs (Promega), 200 ng pdN6 (Amersham) and 30 U of RNase inhibitor (Promega).
Quantitative PCR was then carried out using the CFX96 TOUCH Real-Time PCR Detection System (Biorad). Briefly, the PCR reactions were performed in 96-WP format in 25 μl of total volume containing 1 μL of reverse transcription reaction, 0.5 μL of reverse and forward primers (10 pmol each), and 12.5 μl of 2×iQ SYBR Green Supermix (BioRad), using the following primer sequences:
Expression levels were normalized using the expression of RPLP0 gene as a housekeeping gene of reference in samples. For each gene, the standard curves were drawn by selecting the best points (at least three points) in order to have PCR reaction efficiency close to 100% and a correlation coefficient close to 1. Expression levels were determined using the standard curve equation for both the housekeeping gene and the target gene (taking into account the specific PCR efficiency of each target gene).

[2] = up to 2-year carcinogenicity studies; cited from earlier work
[3] = system: fibrosing NASH-model of rats fed a CDAA+1% cholesterol diet; experiment: Chronic CDAA+1% cholesterol rat model: hepatic collagen content (hydroxyproline); format: in vivo, Wistar rats; details: GFT505 3 mg/kg/d, OCA 10 mg/kg/d, alone or combined; 12 weeks in diet
Protocol: as §2, §3
The hepatic collagen content was determined using the appropriate QuickZyme kit (Total collagen assay, cat #QZB-totcol2). The assay is based on the detection of hydroxyproline, which is a non-proteinogenic amino acid mainly found in the triple helix of collagen. Thus, hydroxyproline in tissue hydrolysates can be used as a direct measure of the amount of collagen present in the tissue (without discrimination between procollagen, mature collagen and collagen degradation products).
Complete hydrolysis of tissue samples in 6M HCl at 95° C. is required before dosing the hydroxyproline. The assay results in the generation of a chromogen with a maximum absorbance at 570 nm. Results are expressed as mg of collagen/g of liver.

Substance: 1-[4-methylthiophenyl]-3-[3,5-dimethyl-4-carboxydimethylmethyloxyphenyl]prop-2-en-1-one [Elafibranor]
- reduction of fat content (3D Huh7 spheroids): 12%
- reduction of fat accumulation (HepG2): 20%
- CCR5 mRNA level (marker of inflammation), percentage over the untreated CDAA + 1% cholesterol rats [1]: 103% ± 51%
- TGFβ1 mRNA level, percentage over the untreated CDAA + 1% cholesterol rats [1]: 94% ± 20%
- TIMP1 mRNA level, percentage over the untreated CDAA + 1% cholesterol rats [1]: 78% ± 23%
- αSMA mRNA level, percentage over the untreated CDAA + 1% cholesterol rats [1]: 66% ± 27%
- safety concern [2]: absence of safety concern
- Hepatic collagen content, percentage over the untreated CDAA + 1% cholesterol rats [3]: 45% ± 12%
